According to patent publication US20240384268A1, “Oligonucleotides” (Hudson Institute of Medical Research, priority 2021, published 2024):
In the oligonucleotide strings, read from the 5' end, every base follows the letter of its sugar. An asterisk marks phosphorothioate; unmarked linkages are phosphodiester. Other units and linkages are bracketed, terminal groups are in braces. A string of capitals states the bases alone. d = 2'-deoxy (DNA); m = 2'-O-methyl

Target: T1, TLR3 (Homo sapiens, UniProt O15455)
T1 sequence (O15455 24-904): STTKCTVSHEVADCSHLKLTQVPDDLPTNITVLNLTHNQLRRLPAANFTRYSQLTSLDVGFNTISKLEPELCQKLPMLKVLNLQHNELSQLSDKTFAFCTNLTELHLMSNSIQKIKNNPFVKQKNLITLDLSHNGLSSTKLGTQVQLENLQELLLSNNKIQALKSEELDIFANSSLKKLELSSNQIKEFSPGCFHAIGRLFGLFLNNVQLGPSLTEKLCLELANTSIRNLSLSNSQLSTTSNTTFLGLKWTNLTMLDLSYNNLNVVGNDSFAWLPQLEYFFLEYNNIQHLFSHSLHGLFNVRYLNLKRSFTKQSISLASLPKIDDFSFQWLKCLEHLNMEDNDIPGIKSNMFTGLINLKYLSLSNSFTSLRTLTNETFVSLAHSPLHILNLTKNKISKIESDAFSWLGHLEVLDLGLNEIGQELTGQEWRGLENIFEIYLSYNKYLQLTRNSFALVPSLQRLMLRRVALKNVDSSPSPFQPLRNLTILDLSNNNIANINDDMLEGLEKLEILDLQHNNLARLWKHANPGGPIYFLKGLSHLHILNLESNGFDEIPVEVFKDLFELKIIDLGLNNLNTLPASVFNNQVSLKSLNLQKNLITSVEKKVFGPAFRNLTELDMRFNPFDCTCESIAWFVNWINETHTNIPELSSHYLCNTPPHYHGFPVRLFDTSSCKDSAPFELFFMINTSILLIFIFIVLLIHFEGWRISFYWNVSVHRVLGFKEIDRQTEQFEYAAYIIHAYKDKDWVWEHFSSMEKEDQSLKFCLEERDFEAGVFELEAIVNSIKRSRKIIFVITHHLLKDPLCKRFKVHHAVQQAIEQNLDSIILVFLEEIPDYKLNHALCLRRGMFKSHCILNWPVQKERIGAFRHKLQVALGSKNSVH
Experiment: HEK-TLR3 NF-κB-luciferase reporter, poly(I:C) stimulation
Format: cell-based
Parameters: host or cells: HEK-Blue hTLR3 (HEK293)
Details: for IC50: 30-50 min before 0.5 μg/ml pIC overnight, read-out: IC50 (polyI:C sensing by TLR3)

[1] = 3mer 2'OMe ASO at 2 uM, value relative to Ligand only = 1.000, NT = 0.000
[2] = 3-mers DNA PS 45 min, then 500 ng/ml polyI:C overnight, NF-κB-luciferase normalised to polyI:C only (Ligand 1.000, NT 0.000)

Substance	TLR3 2uM [1]	further results
mG*mC*mG*mG*mU*A*T*C*C*A*T*G*T*C*C*mC*mA*mG*mG*mC (mG*mC*mG*mG*mU*dA*dT*dC*dC*dA*dT*dG*dT*dC*dC*mC*mA*mG*mG*mC; antisense) [C2-Mut1]		IC50: 62 nM
CGU (mC*mG*mU)	0.833	
CUC (mC*mU*mC)	0.874	
UUU (mU*mU*mU)	0.970	
UAA (mU*mA*mA)	0.790	
dC*dC*dC (CCC; listed as DNA, chemistry not fully specified)	0.933	TLR3 2uM [2]: 0.811
dC*dC*dA (CCA; listed as DNA, chemistry not fully specified)	0.917	TLR3 2uM [2]: 0.763
GCU (mG*mC*mU)	0.808	
GGU (mG*mG*mU)	0.829	
CUG (mC*mU*mG)	0.870	
mUmGmA (mU*mG*mA) [UGA, 3-mer 2′OMe PS oligo]	0.806	
dC*dA*dA (CAA; listed as DNA, chemistry not fully specified)	0.771	TLR3 2uM [2]: 0.909
UAG (mU*mA*mG)	0.940	
UGC (mU*mG*mC)	0.903	
dC*dG*dA (CGA; listed as DNA, chemistry not fully specified)	0.780	TLR3 2uM [2]: 0.823
UAC (mU*mA*mC)	0.813	
dA*dC*dA (DNA ACA; listed as RNA, chemistry not fully specified)	1.053	TLR3 2uM [2]: 0.832
dA*dG*dA (DNA AGA; listed as DNA, chemistry not fully specified)	0.829	TLR3 2uM [2]: 0.849
CUA (mC*mU*mA)	0.851	
UUG (listed as RNA, chemistry not fully specified)	1.030	
dG*dC*dC [GCC]	0.884	TLR3 2uM [2]: 0.895
mGmAmU (mG*mA*mU) [GAU, 3-mer 2′OMe PS oligo]	0.771	
mGmUmA (GUA; all 2'-O-methyl, backbone not given here; further chemistry not fully specified) [shortMut1-3b]	0.839	
mGmUmC (mG*mU*mC) [GUC, 3-mer 2′OMe PS oligo]	0.752	
T*T*A* G*G*G* T*T*A* G*G*G* T*T*A* G*G*G* T*T*A* G*G*G [A151, reference compound]		inhibition of polyI:C sensing by TLR3 at 500 nM (in words) (500 nM ASOs/ODNs, poly(I:C) 1 μg/ml): only partially reduced polyL:C-dependent TLR3 activation; IC50: > 750 nM
AAU (antisense mA*mA*mU)	0.888	
AUA (antisense mA*mU*mA)	0.570	

Substance	TLR3 2uM [1]	further results
UUC (mU*mU*mC)	1.023	
dA*dA*dG (DNA AAG; listed as DNA, chemistry not fully specified)	0.616	TLR3 2uM [2]: 0.825
dA*dA*dC (DNA AAC; listed as DNA, chemistry not fully specified)	0.901	TLR3 2uM [2]: 0.861
AUG (mA*mU*mG)	0.859	
mUmCmA (mU*mC*mA) [UCA, 3-mer 2′OMe PS oligo]	0.765	
UGU (mU*mG*mU)	0.967	
CCU (mC*mC*mU)	0.870	
AGU (antisense mA*mG*mU)	0.829	
CAU (mC*mA*mU)	0.866	
mCmUmU (antisense mC*mU*mU) [660-3]	0.846	
UCU (mU*mC*mU)	0.804	
dC*dC*dG (CCG; listed as DNA, chemistry not fully specified)	0.770	TLR3 2uM [2]: 0.867
UAU (mU*mA*mU)	0.915	
mUmGmG (mU*mG*mG) [UGG, 3-mer 2′OMe PS oligo]	0.764	
mGmUmG (mG*mU*mG) [GUG, 3-mer 2′OMe PS oligo]	0.786	
mAmUmC (mA*mU*mC) [AUC, 3-mer 2′OMe PS oligo]	0.768	
dA*dG*dC (DNA AGC; listed as DNA, chemistry not fully specified)	1.019	TLR3 2uM [2]: 0.854
UCC (mU*mC*mC)	0.761	
AUU (mA*mU*mU)	0.809	
UUA (mU*mU*mA)	1.081	
dC*dA*dC (CAC; listed as RNA, chemistry not fully specified)	0.841	TLR3 2uM [2]: 0.796
dA*dA*dA (DNA AAA; listed as DNA, chemistry not fully specified)	1.026	TLR3 2uM [2]: 1.065
mGmUmU (mG*mU*mU) [GUU, 3-mer 2′OMe PS oligo]	0.825	
mUmCmG (antisense mU*mC*mG) [660-3b]	0.850	
dG*dC*dG [GCG]	0.830	TLR3 2uM [2]: 0.867
ACU (antisense mA*mC*mU)	1.062	
